In PubChem BioAssay (NCI):
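Test compounds were applied to cells in 96-well plates for 48 hours at 5 doses. GI50 = concentration required for 50% inhibition of growth. At the TGI there is no net growth.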

Experiments:
Assay in all cases: NCI tumour cell line growth inhibition, 48 h
786-0 renal = system: 786-0 renal
A498 renal = system: A498 renal
A549 NSCLC = system: A549 NSCLC
ACHN renal = system: ACHN renal
BT-549 breast = system: BT-549 breast
CAKI-1 renal = system: CAKI-1 renal
CCRF-CEM leukemia = system: CCRF-CEM leukemia
COLO 205 colon = system: COLO 205 colon
DU-145 prostate = system: DU-145 prostate
EKVX NSCLC = system: EKVX NSCLC
HCC-2998 colon = system: HCC-2998 colon
HCT-116 colon = system: HCT-116 colon
HCT-15 colon = system: HCT-15 colon
HL-60(TB) leukemia = system: HL-60(TB) leukemia
HOP-62 NSCLC = system: HOP-62 NSCLC
HOP-92 NSCLC = system: HOP-92 NSCLC
HS 578T breast = system: HS 578T breast
HT29 colon = system: HT29 colon
IGROV1 ovarian = system: IGROV1 ovarian
K-562 leukemia = system: K-562 leukemia
KM12 colon = system: KM12 colon
LOX IMVI melanoma = system: LOX IMVI melanoma
M14 melanoma = system: M14 melanoma
MALME-3M melanoma = system: MALME-3M melanoma
MCF7 breast = system: MCF7 breast
MDA-MB-231 breast = system: MDA-MB-231 breast
MDA-MB-435 = system: MDA-MB-435
MDA-MB-468 breast = system: MDA-MB-468 breast
MOLT-4 leukemia = system: MOLT-4 leukemia
NCI-H226 lung = system: NCI-H226 lung
NCI-H23 lung = system: NCI-H23 lung
NCI-H460 lung = system: NCI-H460 lung
NCI-H522 lung = system: NCI-H522 lung
NCI/ADR-RES ovarian = system: NCI/ADR-RES ovarian
OVCAR-3 ovarian = system: OVCAR-3 ovarian
OVCAR-4 ovarian = system: OVCAR-4 ovarian
OVCAR-5 ovarian = system: OVCAR-5 ovarian
OVCAR-8 ovarian = system: OVCAR-8 ovarian
PC-3 prostate = system: PC-3 prostate
RPMI-8226 leukemia = system: RPMI-8226 leukemia
RXF 393 renal = system: RXF 393 renal
SF-268 CNS = system: SF-268 CNS
SF-295 CNS = system: SF-295 CNS
SF-539 CNS = system: SF-539 CNS
SK-MEL-2 melanoma = system: SK-MEL-2 melanoma
SK-MEL-28 melanoma = system: SK-MEL-28 melanoma
SK-MEL-5 melanoma = system: SK-MEL-5 melanoma
SK-OV-3 ovarian = system: SK-OV-3 ovarian
SN12C renal = system: SN12C renal
SNB-19 CNS = system: SNB-19 CNS
SNB-75 CNS = system: SNB-75 CNS
SR leukemia = system: SR leukemia
SW-620 colon = system: SW-620 colon
T-47D breast = system: T-47D breast
TK-10 renal = system: TK-10 renal
U251 CNS = system: U251 CNS
UACC-257 melanoma = system: UACC-257 melanoma
UACC-62 melanoma = system: UACC-62 melanoma
UO-31 renal = system: UO-31 renal

Work on `COc1cc(-c2nc3ccc(C)cc3[nH]2)ccc1OCc1nnc(-c2ccc(Br)cc2)o1` yielded a GI50 (786-0 renal) of 16.6 µM, a TGI (786-0 renal) of 45.5 µM and a GI50 (A498 renal) of 30.3 µM. It also gave a TGI (A498 renal) of 93.3 µM, a GI50 (A549 NSCLC) of 31 µM and a TGI (A549 NSCLC) greater than 100 µM. The GI50 (ACHN renal) was 27.2 µM, the TGI (ACHN renal) was greater than 100 µM and the GI50 (BT-549 breast) was 21.3 µM. It also gave a TGI (BT-549 breast) of 48.8 µM, a GI50 (CAKI-1 renal) of 25.5 µM and a TGI (CAKI-1 renal) greater than 100 µM. It also gave a GI50 (CCRF-CEM leukemia) of 28.3 µM, a TGI (CCRF-CEM leukemia) greater than 100 µM and a GI50 (COLO 205 colon) of 27.1 µM. For the same compound, the TGI (COLO 205 colon) was greater than 100 µM, the GI50 (DU-145 prostate) was 51.7 µM and the TGI (DU-145 prostate) was greater than 100 µM. The GI50 (EKVX NSCLC) was 18.9 µM, the TGI (EKVX NSCLC) was greater than 100 µM and the GI50 (HCC-2998 colon) was 26.2 µM. It also gave a TGI (HCC-2998 colon) greater than 100 µM, a GI50 (HCT-116 colon) of 25.4 µM and a TGI (HCT-116 colon) greater than 100 µM. For the same compound, the GI50 (HCT-15 colon) was 12.2 µM, the TGI (HCT-15 colon) was 85.7 µM and the GI50 (HL-60(TB) leukemia) was 18.6 µM. It also gave a TGI (HL-60(TB) leukemia) of 39 µM, a GI50 (HOP-62 NSCLC) of 28.4 µM and a TGI (HOP-62 NSCLC) greater than 100 µM. The GI50 (HOP-92 NSCLC) was 15.6 µM, the TGI (HOP-92 NSCLC) was greater than 100 µM and the GI50 (HS 578T breast) was 12.5 µM. For the same compound, the TGI (HS 578T breast) was 45.4 µM, the GI50 (HT29 colon) was 10.8 µM and the TGI (HT29 colon) was 53.6 µM. The GI50 (IGROV1 ovarian) was 16.3 µM, the TGI (IGROV1 ovarian) was greater than 100 µM and the GI50 (K-562 leukemia) was 15.4 µM. The TGI (K-562 leukemia) was greater than 100 µM, the GI50 (KM12 colon) was 55.1 µM and the TGI (KM12 colon) was greater than 100 µM. The GI50 (LOX IMVI melanoma) was 12.1 µM, the TGI (LOX IMVI melanoma) was 27.5 µM and the GI50 (M14 melanoma) was 40.2 µM. For the same compound, the TGI (M14 melanoma) was greater than 100 µM, the GI50 (MALME-3M melanoma) was 12.4 µM and the TGI (MALME-3M melanoma) was 28.7 µM. For the same compound, the GI50 (MCF7 breast) was 4.28 µM, the TGI (MCF7 breast) was 70.7 µM and the GI50 (MDA-MB-231 breast) was 14.4 µM. It also gave a TGI (MDA-MB-231 breast) of 33.1 µM, a GI50 (MDA-MB-435) of 18.7 µM and a TGI (MDA-MB-435) of 53.3 µM. It also gave a GI50 (MDA-MB-468 breast) of 14 µM, a TGI (MDA-MB-468 breast) of 30.9 µM and a GI50 (MOLT-4 leukemia) of 6.86 µM. It also gave a TGI (MOLT-4 leukemia) greater than 100 µM, a GI50 (NCI-H226 lung) of 15.3 µM and a TGI (NCI-H226 lung) greater than 100 µM. For the same compound, the GI50 (NCI-H23 lung) was 32 µM, the TGI (NCI-H23 lung) was greater than 100 µM and the GI50 (NCI-H460 lung) was 27.8 µM. The TGI (NCI-H460 lung) was greater than 100 µM, the GI50 (NCI-H522 lung) was 17.1 µM and the TGI (NCI-H522 lung) was 45 µM. It also gave a GI50 (NCI/ADR-RES ovarian) of 19.3 µM, a TGI (NCI/ADR-RES ovarian) greater than 100 µM and a GI50 (OVCAR-3 ovarian) of 20.5 µM. It also gave a TGI (OVCAR-3 ovarian) of 52.9 µM, a GI50 (OVCAR-4 ovarian) of 14.3 µM and a TGI (OVCAR-4 ovarian) of 38.4 µM. The GI50 (OVCAR-5 ovarian) was 57.2 µM, the TGI (OVCAR-5 ovarian) was greater than 100 µM and the GI50 (OVCAR-8 ovarian) was 16.1 µM. For the same compound, the TGI (OVCAR-8 ovarian) was 45.3 µM, the GI50 (PC-3 prostate) was 40.3 µM and the TGI (PC-3 prostate) was greater than 100 µM. For the same compound, the GI50 (RPMI-8226 leukemia) was 8.54 µM, the TGI (RPMI-8226 leukemia) was greater than 100 µM and the GI50 (RXF 393 renal) was 20.4 µM. It also gave a TGI (RXF 393 renal) of 59.8 µM, a GI50 (SF-268 CNS) of 36.1 µM and a TGI (SF-268 CNS) greater than 100 µM. It also gave a GI50 (SF-295 CNS) of 14.9 µM, a TGI (SF-295 CNS) of 34.8 µM and a GI50 (SF-539 CNS) of 12.6 µM. For the same compound, the TGI (SF-539 CNS) was 26.7 µM, the GI50 (SK-MEL-2 melanoma) was 27.7 µM and the TGI (SK-MEL-2 melanoma) was greater than 100 µM. It also gave a GI50 (SK-MEL-28 melanoma) of 22.2 µM, a TGI (SK-MEL-28 melanoma) greater than 100 µM and a GI50 (SK-MEL-5 melanoma) of 11.8 µM. For the same compound, the TGI (SK-MEL-5 melanoma) was 34.1 µM, the GI50 (SK-OV-3 ovarian) was 23.6 µM and the TGI (SK-OV-3 ovarian) was greater than 100 µM. For the same compound, the GI50 (SN12C renal) was 29.9 µM, the TGI (SN12C renal) was greater than 100 µM and the GI50 (SNB-19 CNS) was 52.3 µM. For the same compound, the TGI (SNB-19 CNS) was greater than 100 µM, the GI50 (SNB-75 CNS) was 12.2 µM and the TGI (SNB-75 CNS) was 56.8 µM. The GI50 (SR leukemia) was 10.9 µM, the TGI (SR leukemia) was 56.4 µM and the GI50 (SW-620 colon) was 32.8 µM. The TGI (SW-620 colon) was greater than 100 µM, the GI50 (T-47D breast) was 7.33 µM and the TGI (T-47D breast) was 34.4 µM. For the same compound, the GI50 (TK-10 renal) was 27.6 µM, the TGI (TK-10 renal) was 94.7 µM and the GI50 (U251 CNS) was 15.2 µM. For the same compound, the TGI (U251 CNS) was 55.4 µM, the GI50 (UACC-257 melanoma) was 17.3 µM and the TGI (UACC-257 melanoma) was 46.6 µM. For the same compound, the GI50 (UACC-62 melanoma) was 20.1 µM, the TGI (UACC-62 melanoma) was greater than 100 µM and the GI50 (UO-31 renal) was 11.1 µM. The TGI (UO-31 renal) was greater than 100 µM.
